Assay results reported in patent publication US11020398B2, “Amino-pyrrolopyrimidinone compounds and methods of use thereof” (ArQule, Inc., priority 2016, dated 2021).

What was measured:
[1] = target: full-length activated BTK (wildtype) (Homo sapiens (Human), UniProt Q06187); experiment: AlphaScreen assay, wild-type BTK; format: biochemical
Protocol: (§1) The activated BTK was frozen in 50 μl aliquots (125-150 μg/ml).
(§2) BTK activity was assayed using a PLCγ2-derived biotinylated peptide substrate (biotin-[…]-OH) and AlphaScreen™ (Amplified Luminescent Proximity Homogeneous Assay) technology. The extent of peptide phosphorylation was determined by using acceptor beads conjugated to phosphotyrosine antibody that recognized the phosphorylated peptide and donor beads conjugated to streptavidin that binds to the biotin on the peptide. Excitation of the donor beads converted ambient oxygen to excited singlet oxygen which when in close proximity to acceptor beads, reacted with acceptor beads resulting in signal amplification.
(§3) Test inhibitors and controls were prepared in 10% DMSO at 10-fold the desired final concentration and added to each well of a reaction plate (Corning 96-well half-area solid white nonbinding surface plate) in a volume of 2.5 μl. […] The plate was incubated for 120 min at room temperature and the reaction stopped by the addition of 10 μl stop/detection mixture containing 35 mM EDTA, 50 ug/ml AlphaScreen™ Streptavidin Donor beads (final concentration is 500 ng/well) and AlphaScreen™ Phospho-tyrosine (P-Tyr-100) Acceptor beads (final concentration is 500 ng/well) under green light conditions. The plate was incubated overnight at room temperature in the dark and the plates read on the BMG PolarStar Omega ([…], Gain=4000). Data were archived and analyzed with a 4-parameter fit to generate IC50 values using the CDD Vault from Collaborative Drug Discovery.

[2] = target: full-length activated BTK mutant C481S (Homo sapiens (Human), UniProt Q06187, C481S); experiment: AlphaScreen assay, BTK mutant C481S; format: biochemical
Protocol: as §1, §2, §3

Sequence of full-length activated BTK mutant C481S (Q06187 whole entry C481S): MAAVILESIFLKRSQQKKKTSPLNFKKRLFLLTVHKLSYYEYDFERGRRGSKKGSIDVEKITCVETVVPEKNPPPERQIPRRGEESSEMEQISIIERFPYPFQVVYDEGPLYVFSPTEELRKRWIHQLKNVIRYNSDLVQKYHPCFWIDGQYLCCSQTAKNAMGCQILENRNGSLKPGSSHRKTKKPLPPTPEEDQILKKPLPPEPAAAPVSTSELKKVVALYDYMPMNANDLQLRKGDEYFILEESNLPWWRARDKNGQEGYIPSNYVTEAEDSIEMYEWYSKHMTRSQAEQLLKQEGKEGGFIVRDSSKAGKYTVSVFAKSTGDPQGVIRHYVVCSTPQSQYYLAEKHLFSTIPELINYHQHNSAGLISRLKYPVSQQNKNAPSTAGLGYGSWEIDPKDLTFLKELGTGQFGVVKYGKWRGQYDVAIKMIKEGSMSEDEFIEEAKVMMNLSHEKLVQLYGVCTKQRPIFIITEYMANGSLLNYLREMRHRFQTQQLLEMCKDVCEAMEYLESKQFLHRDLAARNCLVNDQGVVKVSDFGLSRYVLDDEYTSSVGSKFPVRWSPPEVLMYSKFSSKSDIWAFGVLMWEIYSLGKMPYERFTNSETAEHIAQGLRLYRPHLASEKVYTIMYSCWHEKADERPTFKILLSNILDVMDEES
Sequence of full-length activated BTK (wildtype) (Q06187 whole entry): as the sequence (Q06187 whole entry C481S) above, with S481C counted along it

SMILES	IC50 [1] [nM]	IC50 [2] [nM]	inhibition at 10 µM ([2]; read-out: BTK-C481S % @ 10 uM, @ 10 uM) [%]
CC(=O)N1CC(Nc2ncnc3[nH]cc(C(=O)c4ccc(Oc5ccccc5)cc4Cl)c23)CCC1CO (racemic) [Compound I-654, rac-1-(5-((5-(2-chloro-4-phenoxybenzoyl)-7H-pyrrolo[2,3-d]pyrimidin-4-yl)amino)-2-(hydroxymethyl)-piperidin-1-yl)ethan-1-one]	6.55	20.7	–
O=C(Nc1ccccc1)c1ccc(C(=O)c2c[nH]c3ncnc(N[C@@H]4CC[C@@H](CO)OC4)c23)cc1 [Compound I-231, 4-(4-(((3R,6S)-6-(hydroxymethyl)tetrahydro-2H-pyran-3-yl)amino)-7H-pyrrolo[2,3-d]pyrimidine-5-carbonyl)-N-phenylbenzamide]	318	248	–
O=C(Nc1ccccc1)c1ccc(C(=O)c2c[nH]c3ncnc(N[C@@H]4CC[C@@H](CO)OC4)c23)c(Cl)c1 [Compound I-236, 3-chloro-4-(4-(((3R,6S)-6-(hydroxymethyl)tetrahydro-2H-pyran-3-yl)amino)-7H-pyrrolo[2,3-d]pyrimidine-5-carbonyl)-N-phenylbenzamide]	181	98.4	–
O=C(Nc1ccncc1)c1ccc(C(=O)c2c[nH]c3ncnc(N[C@@H]4CC[C@@H](CO)OC4)c23)c(Cl)c1 [Compound I-246, 3-chloro-4-(4-(((3R,6S)-6-(hydroxymethyl)tetrahydro-2H-pyran-3-yl)amino)-7H-pyrrolo[2,3-d]pyrimidine-5-carbonyl)-N-(pyridin-4-yl)benzamide]	103	514	–
O=C(Nc1cccnc1)c1ccc(C(=O)c2c[nH]c3ncnc(N[C@@H]4CC[C@@H](CO)OC4)c23)c(Cl)c1 [Compound I-256, 3-chloro-4-(4-(((3R,6S)-6-(hydroxymethyl)tetrahydro-2H-pyran-3-yl)amino)-7H-pyrrolo[2,3-d]pyrimidine-5-carbonyl)-N-(pyridin-3-yl)benzamide]	156	317	–
O=C(Nc1ccc(C(=O)c2c[nH]c3ncnc(N[C@@H]4CC[C@@H](CO)OC4)c23)c(Cl)c1)c1ccccc1 [Compound I-276, N-(3-chloro-4-(4-(((3R,6S)-6-(hydroxymethyl)tetrahydro-2H-pyran-3-yl)amino)-7H-pyrrolo[2,3-d]pyrimidine-5-carbonyl)phenyl)benzamide]	17.6	58	–
O=C(c1ccc(N2CCOCC2)cc1Cl)c1c[nH]c2ncnc(N[C@@H]3CC[C@@H](CO)OC3)c12 [Compound I-311i, (2-chloro-4-morpholinophenyl)(4-(((3R,6S)-6-(hydroxymethyl)tetrahydro-2H-pyran-3-yl)amino)-7H-pyrrolo[2,3-d]pyrimidin-5-yl)methanone]	867	–	81
COCCOc1ccc(C(=O)c2c[nH]c3ncnc(N[C@@H]4CC[C@@H](CO)OC4)c23)c(Cl)c1 [Compound I-317i, (2-chloro-4-(2-methoxyethoxy)phenyl)(4-(((3R,6S)-6-(hydroxymethyl)tetrahydro-2H-pyran-3-yl)amino)-7H-pyrrolo[2,3-d]pyrimidin-5-yl)methanone]	40.7	156	–
COCCOc1ccc(C(=O)c2c[nH]c3ncnc(N[C@@H]4CC[C@@H](CO)OC4)c23)cc1 [Compound I-318i, (4-(((3R,6S)-6-(hydroxymethyl)tetrahydro-2H-pyran-3-yl)amino)-7H-pyrrolo[2,3-d]pyrimidin-5-yl)(4-(2-methoxyethoxy)phenyl)methanone]	423	714	–
CNC(=O)c1cccc(Oc2ccc(C(=O)c3c[nH]c4ncnc(N[C@@H]5CC[C@@H](CO)OC5)c34)c(Cl)c2)n1 [Compound I-319, 6-(3-chloro-4-(4-(((3R,6S)-6-(hydroxymethyl)tetrahydro-2H-pyran-3-yl)amino)-7H-pyrrolo[2,3-d]pyrimidine-5-carbonyl)phenoxy)-N-methyl picolinamide]	444	127	–
